Assays:
Experiment in all cases: Twenty-four hour biofilm growth (crystal violet)
Type in all cases: cell-based
[1] = tested on: P. gingivalis
Procedure: (§1) The increase in biofilm formation of the tested bacteria in response to selected saccharides (D-turanose, D-lactitol, myo-inositol, and N-acetyl-D-mannosamine) was investigated by setting up biofilm growth assays in a nutritionally rich medium (brain heart infusion broth (BHI), Oxoid), over 24 hours. Late exponential growth phase liquid cultures were prepared by transferring the respective bacterium from blood agar plates to BHI and overnight incubation at 37° C. in an anaerobic atmosphere for A. viscosus, V. parvula, P. gingivalis, P. intermedia, T. forsythia, A. naeslundii, and C. sputigena, and in a 5% CO2 environment for S. salivarius, S. sanguinis, S. mitis, A. actinomycetemcomitans, S. mutans, and S. gordonii. Overnight cultures were transferred to BHI and adjusted to a concentration of 1×10^7 CFU/ml by measuring the optical density at 600 nm (OD600) (BioRad SmartSpec 3000). For each strain, 200 μl of the bacterial suspension was added to a 96-well plate containing 20 μl of the respective saccharides. Final concentrations of the saccharides were set to 5, 10, 20 and 25 μmol/ml. […] Additionally, for each bacterium tested, a background control, to correct for background staining, was added. This background control contained the bacterium tested and 0.03 weight % chlorhexidine, as an antiseptic. Plates were incubated as previously described. After 24 hrs the supernatant was removed from the wells of the plates. The wells were washed twice with 1×100 μL PBS (phosphate buffered saline), fixed for 20 minutes with 96% vol. ethanol (96% vol. solution in water) and the biofilm retained at the bottom of the wells was stained with 1 weight % crystal violet (1 weight % solution in water). The bound dye was dissolved with 5% vol. acetic acid (5% vol. solution in water). Quantification of the stained biofilm was performed by measuring the absorbance at 630 nm using a Multiskan Ascent microplate reader (Thermo Scientific).
(§2) The experiment was carried out on three different days (thus providing 3 biological replicas) and each day the experiment was carried out in quadruple (thus providing 4 technical replicas) for each combination of bacterium with saccharide and for each control. For each day and for each combination, the average (mean) of the values obtained (as detailed above) for the four technical replicas was calculated to provide a single value for each combination on each day. The values shown in Tables 7a, 7b, 8a, 8b, below, are the average (mean) of the three single values obtained for each combination of bacterium with saccharide.

[2] = tested on: S. gordonii
Procedure: as §1, §2

[3] = tested on: A. viscosus
Procedure: as §1, §2

[4] = tested on: S. sanguinis
Procedure: as §1, §2

[5] = tested on: S. mutans; settings: S mutans
Procedure: as §1, §2

[6] = tested on: V. parvula
Procedure: as §1, §2

[7] = tested on: C. sputigena
Procedure: as §1, §2

[8] = tested on: S. salivarius
Procedure: as §1, §2

[9] = tested on: S. mitis
Procedure: as §1, §2

[10] = tested on: A. actinomycetemcomitans
Procedure: as §1, §2

[11] = tested on: P. intermedia
Procedure: as §1, §2

[12] = tested on: A. naeslundii
Procedure: as §1, §2

[13] = tested on: T. forsythia
Procedure: as §1, §2

Question: Which results are given for `O[C@H]1[C@H](O)[C@@H](O)[C@H](O)[C@@H](O)[C@H]1O` [Myo-Inositol, (1R,2R,3S,4S,5R,6S)-cyclohexane-1,2,3,4,5,6-hexol]?
Answer: biofilm growth: OD 630 nm at 24 hrs divided by OD of control (control = 1) ([1]; 5 μmol/ml): 0.9325; biofilm growth: OD 630 nm at 24 hrs divided by OD of control (control = 1) ([1]; 10 μmol/ml): 0.9657; biofilm growth: OD 630 nm at 24 hrs divided by OD of control (control = 1) ([1]; 20 μmol/ml): 0.9448; biofilm growth: OD 630 nm at 24 hrs divided by OD of control (control = 1) ([1]; 25 μmol/ml): 1.0290; biofilm growth: OD 630 nm at 24 hrs divided by OD of control (control = 1) ([2]; 5 μmol/ml): 0.6178; biofilm growth: OD 630 nm at 24 hrs divided by OD of control (control = 1) ([2]; 10 μmol/ml): 0.6384; biofilm growth: OD 630 nm at 24 hrs divided by OD of control (control = 1) ([2]; 20 μmol/ml): 0.6650; biofilm growth: OD 630 nm at 24 hrs divided by OD of control (control = 1) ([2]; 25 μmol/ml): 0.6716; biofilm growth: OD 630 nm at 24 hrs divided by OD of control (control = 1) ([3]; 5 μmol/ml): 0.8136; biofilm growth: OD 630 nm at 24 hrs divided by OD of control (control = 1) ([3]; 10 μmol/ml): 0.8735; biofilm growth: OD 630 nm at 24 hrs divided by OD of control (control = 1) ([3]; 20 μmol/ml): 0.8117; biofilm growth: OD 630 nm at 24 hrs divided by OD of control (control = 1) ([3]; 25 μmol/ml): 0.8167; biofilm growth: OD 630 nm at 24 hrs divided by OD of control (control = 1) ([4]; 5 μmol/ml): 2.4209; biofilm growth: OD 630 nm at 24 hrs divided by OD of control (control = 1) ([4]; 10 μmol/ml): 2.3658; biofilm growth: OD 630 nm at 24 hrs divided by OD of control (control = 1) ([4]; 20 μmol/ml): 2.1878; biofilm growth: OD 630 nm at 24 hrs divided by OD of control (control = 1) ([4]; 25 μmol/ml): 2.1240; biofilm growth: OD 630 nm at 24 hrs divided by OD of control (control = 1) ([5]; 5 μmol/ml): 0.9177; biofilm growth: OD 630 nm at 24 hrs divided by OD of control (control = 1) ([5]; 10 μmol/ml): 1.0152; biofilm growth: OD 630 nm at 24 hrs divided by OD of control (control = 1) ([5]; 20 μmol/ml): 1.1995; biofilm growth: OD 630 nm at 24 hrs divided by OD of control (control = 1) ([5]; 25 μmol/ml): 1.4107; biofilm growth: OD 630 nm at 24 hrs divided by OD of control (control = 1) ([6]; 5 μmol/ml): 1.0021; biofilm growth: OD 630 nm at 24 hrs divided by OD of control (control = 1) ([6]; 10 μmol/ml): 1.1121; biofilm growth: OD 630 nm at 24 hrs divided by OD of control (control = 1) ([6]; 20 μmol/ml): 1.0036; biofilm growth: OD 630 nm at 24 hrs divided by OD of control (control = 1) ([6]; 25 μmol/ml): 1.0399; biofilm growth: OD 630 nm at 24 hrs divided by OD of control (control = 1) ([7]; 5 μmol/ml): 0.9276; biofilm growth: OD 630 nm at 24 hrs divided by OD of control (control = 1) ([7]; 10 μmol/ml): 0.9522; biofilm growth: OD 630 nm at 24 hrs divided by OD of control (control = 1) ([7]; 20 μmol/ml): 0.9758; biofilm growth: OD 630 nm at 24 hrs divided by OD of control (control = 1) ([7]; 25 μmol/ml): 0.8233; biofilm growth: OD 630 nm at 24 hrs divided by OD of control (control = 1) ([8]; 5 μmol/ml): 0.8358; biofilm growth: OD 630 nm at 24 hrs divided by OD of control (control = 1) ([8]; 10 μmol/ml): 0.9694; biofilm growth: OD 630 nm at 24 hrs divided by OD of control (control = 1) ([8]; 20 μmol/ml): 0.8119; biofilm growth: OD 630 nm at 24 hrs divided by OD of control (control = 1) ([8]; 25 μmol/ml): 0.8202; biofilm growth: OD 630 nm at 24 hrs divided by OD of control (control = 1) ([9]; 5 μmol/ml): 1.2433; biofilm growth: OD 630 nm at 24 hrs divided by OD of control (control = 1) ([9]; 10 μmol/ml): 1.0616; biofilm growth: OD 630 nm at 24 hrs divided by OD of control (control = 1) ([9]; 20 μmol/ml): 1.1754; biofilm growth: OD 630 nm at 24 hrs divided by OD of control (control = 1) ([9]; 25 μmol/ml): 1.1357; biofilm growth: OD 630 nm at 24 hrs divided by OD of control (control = 1) ([10]; 5 μmol/ml): 0.8323; biofilm growth: OD 630 nm at 24 hrs divided by OD of control (control = 1) ([10]; 10 μmol/ml): 0.8378; biofilm growth: OD 630 nm at 24 hrs divided by OD of control (control = 1) ([10]; 20 μmol/ml): 0.9661; biofilm growth: OD 630 nm at 24 hrs divided by OD of control (control = 1) ([10]; 25 μmol/ml): 0.9898; biofilm growth: OD 630 nm at 24 hrs divided by OD of control (control = 1) ([11]; 5 μmol/ml): 1.1539; biofilm growth: OD 630 nm at 24 hrs divided by OD of control (control = 1) ([11]; 10 μmol/ml): 1.2210; biofilm growth: OD 630 nm at 24 hrs divided by OD of control (control = 1) ([11]; 20 μmol/ml): 1.1660; biofilm growth: OD 630 nm at 24 hrs divided by OD of control (control = 1) ([11]; 25 μmol/ml): 1.0417; biofilm growth: OD 630 nm at 24 hrs divided by OD of control (control = 1) ([12]; 5 μmol/ml): 1.0309; biofilm growth: OD 630 nm at 24 hrs divided by OD of control (control = 1) ([12]; 10 μmol/ml): 1.0353; biofilm growth: OD 630 nm at 24 hrs divided by OD of control (control = 1) ([12]; 20 μmol/ml): 1.0270; biofilm growth: OD 630 nm at 24 hrs divided by OD of control (control = 1) ([12]; 25 μmol/ml): 1.0456; biofilm growth: OD 630 nm at 24 hrs divided by OD of control (control = 1) ([13]; 5 μmol/ml): 0.6841; biofilm growth: OD 630 nm at 24 hrs divided by OD of control (control = 1) ([13]; 10 μmol/ml): 0.6396; biofilm growth: OD 630 nm at 24 hrs divided by OD of control (control = 1) ([13]; 20 μmol/ml): 0.7688; biofilm growth: OD 630 nm at 24 hrs divided by OD of control (control = 1) ([13]; 25 μmol/ml): 0.6940

Reference: patent publication US11419806B2, “Prebiotic oral care methods using a saccharide” (Colgate-Palmolive Company, priority 2013, dated 2022)
